Measured values as given in patent US20200087326A1, “DEEP RED FLUORESCENT PROBE” (The University of Tokyo, priority 2016, published 2020).

How the values were obtained:
[1] = Evaluation of compounds A-C as Ca^2+ probes (fluorescence intensity vs free Ca^2+); format: binding
Experimental: To investigate whether the synthesized compounds A, B, and C can function as Ca^2+ probes, the absorption and fluorescence spectra were measured in solutions of various Ca^2+ concentrations. FIG. 7 represents the absorption spectra (left), emission spectra (center), and fluorescence spectra (right) of 1 μM of compounds A, B, and C in the presence of various concentrations ([…])propanesulfonic acid (MOPS) containing […] and […] (EGTA). The excitation wavelengths were 646 nm (A), 648 nm (B), and 635 nm (C).

[2] = Absorption and fluorescence spectra (photophysical properties) of compounds A-C in solutions of various Ca^2+ concentrations; format: physicochemical; details: 1 μM compound, pH 7.2 MOPS
Experimental: To investigate whether the synthesized compounds A, B, and C can function as Ca^2+ probes, the absorption and fluorescence spectra were measured in solutions of various Ca^2+ concentrations. FIG. 7 represents the absorption spectra (left), emission spectra (center), and fluorescence spectra (right) of 1 μM of compounds A, B, and C in the presence of various concentrations (0, 0.017, 0.038, 0.065, 0.100, 0.150, 0.225, 0.351, […]) of free Ca^2+ in pH 7.2 30 mM 3-(N-morpholino)propanesulfonic acid (MOPS) containing […] and […] (EGTA). The excitation wavelengths were 646 nm (A), 648 nm (B), and 635 nm (C).

[3] = 39 μM vs 0 μM free [Ca^2+] buffer
[4] = In 0 μM free [Ca^2+] buffer (absence of Ca^2+)

Compound	Activation Ratio [1, 3]	Activation Ratio ([1]; with vs without Ca^2+) [fold]	Φfl [2, 4]	λabs ([2]; In 0 μM free [Ca^2+] buffer) [nm]	λfl ([2]; In 0 μM free [Ca^2+] buffer) [nm]	Φfl ([2]; In 39 μM free [Ca^2+] buffer)	λabs ([2]; In 39 μM free [Ca^2+] buffer) [nm]	λfl ([2]; In 39 μM free [Ca^2+] buffer) [nm]
Cc1ccc(N(CC(=O)O)CC(=O)O)c(OCCOc2cc(NC(=O)c3ccc(C4=C5C=CC(=[N+](C)C)C=C5[Si](C)(C)c5cc(N(C)C)ccc54)c(C(=O)O)c3)ccc2N(CC(=O)O)CC(=O)O)c1 [Compound A]	×2.5	2.5	0.10	646	673	0.25	646	674
Cc1ccc(N(CC(=O)O)CC(=O)O)c(OCCOc2cc(NC(=O)c3ccc(C(=O)O)c(C4=C5C=CC(=[N+](C)C)C=C5[Si](C)(C)c5cc(N(C)C)ccc54)c3)ccc2N(CC(=O)O)CC(=O)O)c1 [Compound B]	×7.3	–	0.04	648	671	0.29	647	672
Cc1ccc(N(CC(=O)O)CC(=O)O)c(OCCOc2cc(NC(=O)C/[N+](C)=C3/C=CC4=C(c5ccccc5C(=O)[O-])c5ccc(N(C)C)cc5[Si](C)(C)C4=C3)ccc2N(CC(=O)O)CC(=O)O)c1 [Compound C]	×26	26	0.01	637	664	0.26	636	661
